Laboratory results published in ChEMBL document CHEMBL4020764, “Phytochemical and cytotoxic studies on the leaves of Calotropis gigantea” (Bioorg Med Chem Lett, 2017).
pIC50: −log10 of the molar value. The source made the active and inactive calls. The rule behind the calls is not given here.

Experiments:
PANC-1 [1] = experiment: Cytotoxicity against human PANC1 cells after 72 hrs by WST8 assay; type: functional, cell-based; conditions: PANC-1, 72 h
PANC-1 [2] = experiment: Induction of morphological changes in human PANC1 cells assessed as cell rounding at 5 to 10 uM after 72 hrs by ethidium bromide/acridine orange staining based fluorescent microscopic analysis; type: functional
PANC-1 [3] = experiment: Induction of morphological changes in human PANC1 cells assessed as disruption of cellular organelles at 5 to 10 uM after 72 hrs by ethidium bromide/acridine orange staining based fluorescent microscopic analysis; type: functional, cell-based
PANC-1 [4] = experiment: Induction of morphological changes in human PANC1 cells assessed as increase in EB positive cells at 5 to 10 uM after 72 hrs by ethidium bromide/acridine orange staining based fluorescent microscopic analysis; type: functional, cell-based
PANC-1 [5] = experiment: Inhibition of colony formation in human PANC1 cells after 10 days by crystal violet staining based assay; type: functional, cell-based
PANC-1 [6] = experiment: Growth inhibition of human PANC1 cells after 72 hrs by WST8 assay; type: functional; conditions: PANC-1, 72 h
PANC-1 [7] = experiment: Cytotoxicity against human PANC1 cells at >25 uM measured after 72 hrs by WST8 assay; type: functional, cell-based

SMILES | pIC50 (PANC-1 [1]) | further results
COc1cc([C@H]2OC[C@H]3[C@@H]2CO[C@@H]3c2ccc(O)c(OC)c2)ccc1O | 4.43 | –
CC(=O)[C@H]1CC[C@H]2[C@@H]3C=CC4=CC(=O)CC[C@]4(C)[C@H]3CC[C@]12C | 4.40 | –
CO[C@@H]1C[C@@H](OCc2ccc(C=O)o2)O[C@@H](C)[C@@H]1O | < 4.00 | –
CC(=O)[C@]1(O)CC[C@]2(O)[C@@H]3CC=C4C[C@@H](O)CC[C@]4(C)[C@H]3C[C@@H](OC(=O)c3ccccc3)[C@]12C | 4.73 | –
Cc1ncccc1O | < 4.00 | –
COc1cc(C(=O)OC[C@H]2O[C@@H](Oc3ccc([C@H]4OC[C@H]5[C@@H]4CO[C@@H]5c4ccc(O)c(OC)c4)cc3OC)[C@H](O)[C@@H](O)[C@@H]2O)ccc1O | 4.20 | –
O=C(/C=C/c1ccc(O)cc1)c1ccc(O)cc1O [ISOLIQUIRITIGENIN] | 5.48 | –
COc1cc([C@H]2O[C@@H](OC)[C@H]3[C@@H]2CO[C@@H]3c2ccc(O)c(OC)c2)ccc1O | 5.43 | Activity (PANC-1 [2]): Active; Activity (PANC-1 [3]): Active; Activity (PANC-1 [4]): Active; inhibition (PANC-1 [5]): Dose-dependent effect
CC(=O)[C@H]1CC[C@@]2(O)[C@@H]3C=CC4=CC(=O)CC[C@]4(C)[C@H]3CC[C@]12C | 4.10 | –
COc1cc([C@H]2OC[C@H]3[C@@H]2CO[C@@H]3c2cc(OC)c(O)c(OC)c2)cc(OC)c1O [SYRINGARESINOL] | 4.21 | –
CO[C@H]1C[C@@H](OCc2ccc(C=O)o2)O[C@@H]1[C@@H](C)O | < 4.00 | –
Nc1ccn([C@@H]2O[C@H](CO)[C@@H](O)C2(F)F)c(=O)n1 [GEMCITABINE] | – | GI50 (PANC-1 [6]): 5.8 µM; Activity (PANC-1 [7]): Active
O=Cc1ccc(CO)o1 [AES-103] | < 4.00 | –
